Test results: patent US10828303B2, “Composition comprising combination of TRH analog with arundic acid, and pharmaceutically acceptable salt of arundic acid” (Brivention Pharmaceutical (Shanghai) Inc., priority 2016, dated 2020)
Values joined by “and” are separate entries in the source; they are usually repeats but may differ in a detail not shown here. Identical values can stand only once.

Columns and labels:
[1] = tested on: four-vessel occlusion model of rats; test: Morris water maze Hidden test in four-vessel occlusion model; assay type: in vivo, rat; conditions: for Hidden test Latency / Hidden test Total distance moved: 4-VO rats; for Hidden test Latency / Hidden test Total distance moved / Time to reach the platform in the Hidden test, in words / Total distance moved in the Hidden test, in words: oral 28 d: arundic acid 30, taltirelin 10, combination 10+3 mg/kg/day; for Hidden test, At the time of grouping Latency: before administration, 1 week after 4-VO; for Time to reach the platform in the Hidden test, in words / Total distance moved in the Hidden test, in words: vs Group 2 control
Description: A Morris water maze test was performed by using a circular pool (168 cm in diameter and 40 cm in depth) filled with water, and a platform (10 cm in diameter and 30 cm in height) for escape of rats. In Zone 3, one transparent plastic escape platform (10 cm in diameter and 30 cm in height) was set at a location 40 cm away from the center of the pool, and […] away from the periphery of the pool. The water temperature of the water maze during the experiment was kept at 23° C. (±1.5° C.). A Hidden test was performed at the time of grouping 1 week after four-vessel occlusion, and on the day following the final administration of test drugs. For the Hidden test, the pool was filled with water to a height of 1 cm above the platform (water depth: 31 cm). A Transfer test was performed 3 days after the final administration of test drugs. For the Transfer test, the platform was removed, and the pool was filled with water to a water depth of 31 cm. To enable the rats to memorize surrounding various spatial arrangements, cues, such as posters and photographs, were placed on the wall. The cues always remained at the same locations during the experiment (FIG. 1: a plan view of Morris water maze, and the laboratory layout).
3) One week after restoration of blood flow, 5 trials of the Hidden test according to the Morris water maze test were performed with intervals of 30 minutes, and a cut-off time of 180 seconds. The rats were grouped by using swimming escape latency (time to reach the platform) as an index. After grouping, oral administration of the drug(s) was started. 4) The drug(s) were orally administered for 28 days. 5) On the day following the final administration of the drug, 5 trials of the Hidden Test for assessing spatial memory by using a water maze were performed with intervals of 30 minutes, and a cut-off time of 180 seconds. After 30 minutes, the platform was removed, and a Transfer test was performed with the pool being filled with water to a water depth of 31 cm.
From the starting point in Zone 1, the rats were thrown into a water maze with their heads being directed toward the outside of the water maze. The location of the platform was fixed at a point (corresponding to E in FIG. 1) on the east side in the water maze (corresponding to Zone 3 in FIG. 1). The maximum time of one trial was 180 seconds. When a rat reached the platform within 180 seconds, the rat was allowed to stand on the platform for 15 seconds. […] This rat was expected to learn the location of the platform by using surrounding various spatial arrangements as cues during the 180 seconds of the Hidden test and 15 seconds of being allowed to stand on the platform (Hidden test). In the Hidden test, swimming trajectory to the goal, swimming distance, swimming escape latency (time to reach the platform), and average swimming speed were measured per trial.
The behaviors of the rats in each trial were automatically analyzed with a CCD camera and the SMART (produced by Kyoto L Giken) behavioral analysis program by binarization of the white color of rats' fur and black ash color of the surrounding area.
Significant differences between the groups in spatial memory according to the Morris water maze method were determined by the nonparametric Dunnett's multiple comparison test. 6) After completion of the Morris water maze test, the brain of each rat was perfusion-fixed with 4% paraformaldehyde. The details are as follows.

[2] = Body weight changes in four-vessel occlusion rats; assay type: in vivo, rat; conditions: for Body weight, Day 7 / Body weight, Day 14 / Body weight, Day 21 / Body weight, Day 28 / Body weight, Day 0: Mean ± S.E.; for Body weight, Day 7 / Body weight, Day 14 / Body weight, Day 21 / Body weight, Day 28: 4-VO rats, oral daily: arundic acid 30, taltirelin 10, combination 10+3 mg/kg/day; for Body weight, Day 0: before administration, one week after 4-VO surgery, groups later given arundic acid 30, taltirelin 10, combination 10+3 mg/kg/day; for Body weight change in words: compared with Group 2 (control), until day 28, arundic acid 30, taltirelin 10, combination 10+3 mg/kg/day
Description: 7-week-old (body weight: 200 to 240 g) male Crl: Wistar rats were used for an experiment after acclimation for 1 week or more. During the experimental period, the rats were raised in an animal room maintained at a room temperature of 23±1° C. and a humidity of 55±5%, and illuminated for 12 hours (6:30-18:30); with ad libitum access to food (Oriental Yeast, CRF-1) and water.
Arundic acid ((R)-(−)-2-propyloctanoic acid: Lot No. CS04818-503, M.W.186.29, specific gravity: 0.908), which is an astrocyte function-improving agent, used in this test is a product synthesized by Chemical Soft Co., Ltd. Taltirelin hydrate (hereinafter referred to as taltirelin, M.W.463.47: N-[(4S)-1-methyl-2,6-dioxohexahydropyrimidine-4-carbonyl]-L-histidyl-L-prolinamide (Lot No. N16P)), which is a ataxia-improving agent, used in this test is a product purchased from Matrix Scientific. When arundic acid was to be administered at a dose of 30 mg/kg/5 mL, 1.61 mL of 1N NaOH was added to 300 mg (306 μL) of arundic acid to dissolve the arundic acid, and 48.084 mL of water or 0.5% CMC (carboxymethyl cellulose) was added to the resulting solution to make a total volume of 50 mL. In the experiment, a 10-fold concentrated arundic acid solution was prepared and adjusted for the concentration before use. When taltirelin was to be administered at a dose of 3 mg/kg or 10 mg/kg, taltirelin was dissolved in distilled water in a volume of 5 ml/kg. The test drug(s) were orally administered for 28 days (including Saturdays, Sundays, and public holidays), starting from 1 week after preparation of four-vessel occlusion models.
Five groups of rats (4 to 6 rats per group) were used. The details are as follows. Group 1 is a group that was not subjected to four-vessel occlusion. Groups 2 to 5 are groups that were subjected to four-vessel occlusion.
A vertebral artery cauterization surgery was performed in accordance with the method of Pulsinelli & Brierley (Pulsinelli, W. A. and Brierley, J. B.: Stroke 10, 267, 1979). More specifically, the rats anesthetized with Nem-ravona (registered trademark) and Butal (registered trademark) were fixed in the prone position to a brain stereotaxic apparatus, and the dorsal cervical skin and muscle layer were incised to expose the first cervical vertebra. The tips of the tweezers of a bipolar coagulator (Mizuho Ikakogyo Co., Ltd.; MICROID) were inserted into the alar foramina on both sides of the first cervical vertebra, and the vertebral artery running upward toward the cerebral base was bilaterally cut off by electrocauterization. The skin was then sutured. Subsequently, the rats were fixed again in the supine position to an experimental surgical table, and the ventral cervical skin was incised. After the bilateral common carotid arteries were separated from surrounding tissues and silk thread was looped around the arteries, the skin was sutured. After completion of the surgery, the rats were returned to a cage and observed. No behavioral abnormality was confirmed.
Twenty-four hours after vertebral artery cauterization by the above method, the rats under isoflurane inhalation anesthesia were fixed in the supine position for immobilization before common carotid artery ligation on the following day. The ventral cervical skin was incised again to expose bilateral common carotid arteries. First, the right-side common carotid artery was occluded with an artery clamp or Mosquito hemostat forceps (both forceps were covered with a silicone tube to reduce stimulus to the blood vessel wall). After about 60 seconds, the left-side common carotid artery was occluded in the same manner. Since righting reflex (RR) of rats during bilateral common carotid artery occlusion, i.e., rats with brain ischemia, was lost, immobilization in the supine-position seemed unnecessary. However, sudden movements, such as walking-like motions of four limbs or lateral turning, were observed. […]

Row | Compound | Hidden test Latency ([1]; Mean ± S.E.) | Hidden test Total distance moved ([1]; Mean ± S.E.) | Hidden test, At the time of grouping Latency ([1]; Mean ± S.E.) | Hidden test Latency ([1]; individual rat, 3 mg/kg/day) | Hidden test Total distance moved ([1]; individual rat, 3 mg/kg/day) | Hidden test, At the time of grouping Latency ([1]; individual rat) | Time to reach the platform in the Hidden test, in words [1] | Total distance moved in the Hidden test, in words [1] | Body weight, Day 7 [2] | Body weight, Day 14 [2] | Body weight, Day 21 [2] | Body weight, Day 28 [2] | Body weight, Day 0 [2] | Body weight change in words [2] | Spatial learning capacity and spatial memory capacity in the Morris water maze test, in words ([1]; oral 28 d: arundic acid 30, combination 10+3 mg/kg/day)
1 | CN1C(=O)C[C@@H](C(=O)N[C@@H](Cc2c[nH]cn2)C(=O)N2CCC[C@H]2C(N)=O)NC1=O [Taltirelin, N-[(4S)-1-methyl-2,6-dioxohexahydropyrimidine-4-carbonyl]-L-histidyl-L-prolinamide] | 83 ± 6.6 s | 16.1 ± 1.6 m | 102 ± 8.3 s | 68.9 s and 88.1 s and 76.4 s and 99.1 s | 19.8 m and 15.0 m and 12.3 m and 17.1 m | 100.1 s and 97.2 s and 85.5 s and 124.8 s | no improvement in time to reach the platform | not considered to be significantly improved | 256.6 ± 8.7 g | 272.3 ± 10.3 g | 291.3 ± 12.0 g | 307.2 ± 12.2 g | 228.6 ± 4.5 g | favorable body weight increase | –
2 | CCCCCC[C@@H](CCC)C(=O)O [Arundic acid, (R)-(−)-2-propyloctanoic acid] | 78 ± 5.2 s | 17.4 ± 2.1 m | 102 ± 9.2 s | 73.8 s and 82.2 s and 90.3 s and 66.5 s | 13.0 m and 15.8 m and 17.9 m and 22.8 m | 112.5 s and 86.9 s and 123.2 s and 87 s | no improvement in time to reach the platform | not considered to be significantly improved | 255.5 ± 5.1 g | 272.6 ± 7.4 g | 288.0 ± 7.1 g | 308.5 ± 5.0 g | 228.7 ± 4.9 g | favorable body weight increase | did not affect spatial learning capacity and spatial memory capacity
